Patent publication US12655173B2, “Hybrid amide derivatives of amphotericin B” (priority 2020, dated 2026)
≈ marks a conversion by molar mass, not a printed value.

How the values were obtained:
Candida glabrata = assay: MIC against yeasts; format: cell-based; conditions: Nakaseomyces glabratus; 5 isolates; Table 3A
Candida tropicalis = assay: MIC against yeasts; format: cell-based; conditions: 10 isolates, Table 3A
Microsporum canis = assay: MIC against yeasts (Table 3A); format: cell-based; conditions: 2 isolates
[1] = tested on: Trichophyton mentagropytes; assay: MIC against yeasts (Table 3A); format: cell-based; conditions: 3 isolates
Scedosporium prolificans = assay: MIC against yeasts (Table 3A); format: cell-based; conditions: Lomentospora prolificans, 2 isolates
[2] = Tolerance study, IP dosing in immunocompromised mice, no infection; conditions: 25 mg/kg QD IP 7 days, observed 14 days
[3] = In vivo mouse pharmacokinetics (IV, CD-1 mice)
Description: Mouse PK (FIG. 2): The experiment was performed using the compounds synthesized in lab and purified by preparative HPLC (>91%). All the compounds were dissolved in D5W (5% dextrose in water) at for IV injection. Female CD-1 mice were (3 per group; body weight approx. 30 g each) injected with the compounds (as per planned dosage) and the blood samples were collected at different time points and the compound content was analysed using the following procedure. • Instrument: Triple Quad 6500+ • Matrix […] CD-1 mouse plasma (EDTA-K2) • Analyte(s): Compound 1 • Internal standard(s): 100 ng/mL Labetalol & 100 ng/mL Tolbutamide in ACN • MS conditions ESI: positive • SRM detection • Compound 1: [M+H]+m/z 979.8>798.4 • Labelatol (IS): [M+H]+m/z 329.2>162.1 • UPLC conditions • Mobile Phase A: 0.1% FA in Water • Mobile Phase B: 0.1% FA in ACN
An aliquot of 90 μL supernatant was transferred to sample plate and mixed with 60 μL water, then the plate was shaken at 800 rpm for 10 min, 15.0 μL supernatant was injected for LC-MS/MS analysis. • Calibration curve: • 1.00-3000 ng/ml, for Compound 1 in female CD-1 mouse plasma (EDTA-K2)

SMILES: C[C@@H]1[C@H](O)[C@@H](C)/C=C/C=C/C=C/C=C/C=C/C=C/C=C/[C@H](OC2O[C@H](C)[C@@H](O)[C@H](N)[C@@H]2O)C[C@@H]2O[C@](O)(C[C@@H](O)C[C@@H](O)[C@H](O)CC[C@@H](O)C[C@@H](O)CC(=O)O[C@H]1C)C[C@H](O)[C@H]2C(=O)O (stereo partly drawn) [AmB, Amphotericin B]
- MIC (Candida glabrata): 1.4 µM (≈ 1.29 µg/mL)
- MIC (Candida tropicalis): 0.8 µM (≈ 0.739 µg/mL)
- MIC (Microsporum canis): 0.56 µM (≈ 0.517 µg/mL)
- MIC [1]: 4 µM (≈ 3.7 µg/mL)
- MIC (Scedosporium prolificans): > 16 µM
- Survival [2]: 66%

SMILES: CC1C=CC=CC=CC=CC=CC=CC=CC(OC2OC(C)C(O)C(N)C2O)CC2OC(O)(CC(O)CC(O)C(O)CCC(O)CC(O)CC(=O)OC(C)C(C)C1O)CC(O)C2C(=O)NC(CO)CO (stereo not drawn) [Compound 1]
- In vivo PK AUC0-inf (ng*hr/mL) ([3]; 1 mg/kg): 18785] ng*hr/mL
- In vivo PK Cl ([3]; 1 mg/kg): 0.891 mL/min/kg
- In vivo PK T1/2, ([3]; 1 mg/kg): 8.37 h
- In vivo PK AUC0-inf ([3]; 5 mg/kg): 79575 ng·h/mL
- In vivo PK Cl ([3]; 5 mg/kg): 1.05 mL/min/kg
- In vivo PK T1/2, ([3]; 5 mg/kg): 9.6 h
